Source: patent publication US20240148917A1, “PNA PROBES FOR PRETARGETED IMAGING AND THERAPY” (Zytox Therapeutics AB, priority 2020, published 2024)
pKd: −log10 of the molar value. Several values for one entry are separate records, joined by “and”; a condition that tells them apart may be missing. Equal entries are not always repeated. {DOTA-AEEA-S-S} = N-terminal DOTA chelator joined through an AEEA linker and two serines; {EEY-NH2} = C-terminal Glu-Glu-Tyr amide

Legend:
HP15 = assay: Melting temperature of PNA hybridization complexes with HP15 (UV absorbance at 260 nm); type: physicochemical; details: duplex with HP15, monitored at 260 nm
Experimental: Melting temperatures for HP15:HP16, HP15:HP17 and HP15:HP18 were determined by monitoring UV absorbance at 260 nm (Chirascan™, Applied Photophysics) at a temperature range from 20 to 95° C., using a temperature change of 1° C./min. The PNA complexes were heated to 80° C. for 5 min and were then allowed to hybridize at room temperature for 5 min prior to UV monitoring at room temperature for 5 min. CD spectra were collected before and after determination of thermal denaturation. The melting temperature for the HP15:HP19 complex was determined using a Varian Cary 50 Bio UV-visual spectrophotometer equipped with a single-cell Peltier thermostat controlled cuvette holder. The temperature in the cell was adjusted at a speed of 0.5° C./min between 20 to 80° C., and measurements were taken at 260 nm after a 60 s equilibration at each temperature point.

ZHER2:342-SR-HP15 = assay: SPR hybridization of complementary PNA probes to immobilized ZHER2:342-SR-HP15; type: binding; details: for kd: dissociation 10 000 s; for affinity to ZHER2:342-SR-HP15 relative to HP16: SPR, kd too slow to determine
Experimental: The kinetic parameters for hybridization of the PNA probes were analyzed using surface plasmon resonance (SPR) on a Biacore™ 8K instrument (GE Healthcare). Dextran chips Series S Sensor CM5 (GE Healthcare), were functionalized with ZHER2:342-SR-HP15 on four surfaces to 385, 194, 185 and 353 resonance units (RU) using standard amine coupling procedures. A reference surface on each chip was subjected to activation followed by deactivation. The complementary PNA probes HP16, HP17, HP18 and HP19 were injected at 5 concentrations; 22.6, 45.3, 90.6, 181.25 and 362.5 nM using a single cycle injection. Association for each concentration was allowed for 300 s, followed by the next injection and association phase. After injection of the final concentration, dissociation was allowed for 10 000 s (2 h 47 min) before regeneration with 10 mM HCl for 30 s followed by 15 mM NaOH for 30 s. All runs were performed in PBST (0.05% Tween-20) pH 7.4 using a flow rate of […] at 25° C. Kinetic parameters were calculated using 1:1 binding model in Biacore Insight Evaluation software.

SKOV3 xenografts = assay: Estimated dosimetry: areas under time-activity plots for kidney and tumor; type: in vivo, BALB/c nu/nu mice; details: non-decay corrected data, 4 and 144 h, pretargeted
Experimental: To estimate a ratio of absorbed doses in tumor and kidneys, cumulated activity in kidney and tumor were assessed. The estimation was based on a clinically validated two time point approach (Freedman 2020). The biodistribution data were non-decay corrected and areas under time-activity plot was calculated using GraphPad Prism software. The assumptions were that the main absorbed dose will be due to beta-particles, as cross-doses would be negligible, and the absorbed fraction would be equal to 1.

[1] = In vitro stability of 177Lu-labeled probes (EDTA challenge, PBS control); type: physicochemical; details: 177Lu-labeled probe, 500-fold molar excess of EDTA
Experimental: To evaluate stability, a fraction of the freshly radiolabeled conjugate (0.4 μg) was incubated with 500-fold molar excess of EDTA for 60 min at 37° C. Incubation was also performed in PBS as a control. The test was run in triplicates.

[2] = binding to immobilized ZHER2:342-SR-HP15, SPR

Substance	Tm (HP15) [°C]	ka (ZHER2:342-SR-HP15; [2]) [M⁻¹ s⁻¹]	pKd (ZHER2:342-SR-HP15; binding to immobilized ZHER2:342-SR-HP15, SPR, 25° C., 1:1 model)	kd (ZHER2:342-SR-HP15; [2])	Tumor-to-kidney ratio (areas under time-activity plots) (SKOV3 xenografts)	Stability (×500 EDTA), 37° C., 1 h [1]	pKd (ZHER2:342-SR-HP15; interaction with HP15, SPR)	affinity to ZHER2:342-SR-HP15 relative to HP16 (ZHER2:342-SR-HP15)
DOTA-AEEA-S-S-a-a-c-a-c-c-a-g-g-E-E-Y-NH2 (AACACCAGG; chemistry not fully specified) [HP16, secondary probe, 9-mer PNA]	73	46000	~9.55 and 9.55	1.2e-05 s⁻¹	3.8	100 ± 0	–	–
DOTA-AEEA-S-S-a-c-c-a-g-g-E-E-Y-NH2 [HP19]	55	2.1e+07	–	0.072 s⁻¹	–	–	8.47	–
DOTA-AEEA-S-S-a-t-c-a-a-c-a-c-c-a-g-g-E-E-Y-NH2 (ATCAACACCAGG; chemistry not fully specified) [HP17, secondary probe, 12-mer PNA]	75	43000	–	too slow to be determined	2.8	100 ± 0	–	estimated to be higher
DOTA-AEEA-S-S-a-t-c-a-t-c-a-a-c-a-c-c-a-g-g-E-E-Y-NH2 (ATCATCAACACCAGG; all peptide nucleic acid (PNA), 5' {DOTA-AEEA-S-S}, 3' {EEY-NH2}) [HP18, secondary probe, 15-mer PNA]	87	57000	–	too slow to be determined	2.0	100 ± 0	–	estimated to be higher
DOTA-AEEA-S-S-g-a-c-t-a-c-a-t-c-c-a-g-a-c-t-E-E-Y-NH2 (GACTACATCCAGACT; all peptide nucleic acid (PNA), 5' {DOTA-AEEA-S-S}, 3' {EEY-NH2}) [HP2, first-generation secondary PNA probe (Westerlund et al, 2015), reference compound]	–	–	–	–	2.0	–	–	–
